# Experimental data published in US12245590B2, “Method for controlling weeds” (SUMITOMO CHEMICAL COMPANY, LIMITED, priority 2019, dated 2025).
# Columns and labels:
# [1] = tested on: Palmer amaranth, waterhemp, kochia, common ragweed or marestail; test: Pot test, foliar spot treatment of weed patches with the crop growing (Example 2); format: in vivo; details: spot foliar treatment of 20% of pot area, 50 g/ha, 150 L/ha, 1% Agri-Dex; weeds and soybean, corn or cotton 14 days old; 21 days in greenhouse
# Description: (§1) The evaluation of the herbicidal efficacy is classified into 0 to 100, where the numeral “0” indicates no or little difference in the state of emergence or growth of weeds under test at the time of examination as compared with untreated weeds, and the numeral “100” indicates the complete death of weeds under test or the complete inhibition of emergence or growth of weeds under test.
# A pot is filled with soil, and then Palmer amaranth, waterhemp, kochia, common ragweed, or marestail is seeded at a corner portion of the soil, and soybean (Genuity Roundup Ready 2 Xtend), corn (Genuity Roundup Ready 2), or cotton (Genuity Roundup Ready 2 Xtend) is seeded at another corner portion of the soil. The weeds and crops are grown in a greenhouse for 14 days, and a section including vegetation patches of weeds (20% of the area on the pot) is subjected to foliar treatment with a spray liquid of saflufenacil (prepared by diluting Sharpen with water containing 1% (w/v) of adjuvant Agri-Dex) at 50 g/ha (as an application amount in a spot-treated section) and a liquid amount of 150 L/ha (as a liquid amount in a spot-treated section). Thereafter, the weeds and crops are grown in the greenhouse for 21 days. This is defined as the invention plot.
# [2] = tested on: Palmer amaranth, waterhemp, kochia, common ragweed or marestail; test: Pot test, foliar spot treatment of weed patches before seeding the crop (Example 1); format: in vivo; details: spot foliar treatment of 20% of pot area, 50 g/ha, 150 L/ha, 1% Agri-Dex; weeds 14 days old; soybean, corn or cotton seeded immediately after; 21 days in greenhouse
# Description: as §1
# A pot is filled with a soil, and then Palmer amaranth, waterhemp, kochia, common ragweed or marestail is seeded at a corner portion of the soil. The weeds are grown in a greenhouse for 14 days, and a section including vegetation patches of weeds (20% of the area on the pot) is subjected to foliar treatment with a spray liquid of saflufenacil (prepared by diluting a commercially available formulation of saflufenacil (aqueous suspension concentrate containing 29.74% of saflufenacil, Sharpen, manufactured by BASF) with water containing 1% (w/v) of adjuvant Agri-Dex) at 50 g/ha (as an application amount in a spot-treated section) and a liquid amount of 150 L/ha (as a liquid amount in a spot-treated section). Immediately thereafter, soybean (Genuity Roundup Ready 2 Xtend), corn (Genuity Roundup Ready 2), or cotton (Genuity Roundup Ready 2 Xtend) is seeded in a corner portion different from vegetation patches of weeds in the soil, and grown in the greenhouse for 21 days. This is defined as the invention plot.
compound,measurement,setting,value
CC(C)N(C)S(=O)(=O)NC(=O)c1cc(-n2c(=O)cc(C(F)(F)F)n(C)c2=O)c(F)cc1Cl [saflufenacil],weed control effect of the invention plot compared with comparative plots (no crop seeded; uniform blanket treatment),[1],excellent weed control effect
same,weed control effect of the invention plot compared with comparative plots (no crop seeded; uniform blanket treatment),[2],excellent weed control effect
